# According to patent US20050222168A1, “Beta-carboline derived guanidine alkaloids, tiruchenduramine” (Council of Scientific and Industrial Research, priority 2004, published 2005):
# Tested on: α-glucosidase
# Assay: in-vitro assay for anti-diabetic activity (α-glucosidase inhibition)
# Type: biochemical
# Conditions: amount printed without volume or percent inhibition
# Excerpt: The structure of compound 1 was established by the study of ^1H-^1H—COSY, HMQC, HMBC and NOESY spectral data (Table 1) as Formula 1.
smiles,measurement,value
"N=C1NCC(CCNC(=O)c2cc3c(cn2)[nH]c2ccccc23)N1 (stereo not shown) [Tiruchenduramine, tiruchenduramine]",amount at which it inhibits α-glucosidase,788 µg
